Measured values published in paper PMC12472494, “Anticonvulsant Potential of 1-Aryl-6,7-dimethoxy-1,2,3,4-tetrahydroisoquinolines: Insights from Strychnine and Nicotine Models in In Vivo and In Silico Studies” (Pharmaceuticals, 2025).

Experiments:
[1] = test system: strychnine-induced seizures; experiment: Strychnine-induced seizure model; format: in vivo, mice; details: for responders at 1 mg/kg: Mus musculus, read-out: Survival Rate; for responders at 1 mg/kg / Duration of Tremor and Seizures / Latency to Tremor and Seizure Onset: oral dose 1.0 mg/kg 60 min before strychnine 1.5 mg/kg s.c., N = 10; for Duration of Tremor and Seizures / Latency to Tremor and Seizure Onset: mean ± SD; for survival rate of strychnine-poisoned animals: dose not given
Text: (§1) The anticonvulsant effects of the examined substances were studied in male white mice weighing 18–22 g, divided into the following groups: control (including the strychnine and nicotine groups), carbamazepine group, Convulex group, and experimental groups (one for each tested substance). Simple randomization (“heads or tails” coin toss) was used to assign animals to groups. Each group contained 10 animals. Healthy animals were included in the experiments after a 14-day quarantine period. No animals were excluded from the study. Convulsant agents were administered subcutaneously at doses of 10.0 mg/kg for nicotine (Sigma–Aldrich, Saint Louis, MO, USA) and 1.5 mg/kg for strychnine (Sigma–Aldrich, Saint Louis, MO, USA), 60 min after the oral administration of the test substances at doses ranging from 0.1 to 10 mg/kg. The onset time, duration of tremors and seizures, and survival rate of the animals were recorded. Carbamazepine (Darnitsa, Kiev, Ukraine) at doses of 5.0–10.0 mg/kg and Convulex (valproate) (Gerot Pharmazeutika GmbH, Vienna, Austria) at doses of 75.0–100.0 mg/kg (based on the therapeutic anticonvulsant dose) were used as reference drugs.
(§2) Data were presented as mean ± SD for different groups. Statistical analysis was performed using OriginPro 9.0 (MicroCal Software, Northampton, MA, USA), with p < 0.05 considered statistically significant.

[2] = test system: tremorogenic and convulsive actions of nicotine; experiment: Nicotine-induced tremor and seizure model; format: in vivo, mice; details: for responders at 1 mg/kg: Mus musculus, po, read-out: Survival Rate; for survival rate of the animals increased to: at low doses (0.1–5 mg/kg); for activity against tremorogenic and convulsive actions of nicotine versus reference drugs (in words): doses of 0.1–5 mg/kg; for Duration of Seizures / Latency to Seizure Onset: oral dose 1.0 mg/kg 60 min before nicotine 10 mg/kg s.c., mean ± SD, N = 10; for survival of poisoned animals compared to carbamazepine and valproate (in words): mouse, in vivo
Text: as §1, §2

[3] = parameters: method as in PMID 36677539; details: per os; cited from earlier work

For COc1cc2c(cc1OC)C(c1ccc(N)cc1)NCC2 (stereo not shown) [Compound 34, 1-(4′-Aminophenyl)-6,7-dimethoxy-1,2,3,4-tetrahydroisoquinoline], the responders at 1 mg/kg [1] was 40%, the “Duration of Tremor and Seizures” value [1] was 0.34 ± 0.7 min and the “Latency to Tremor and Seizure Onset” value [1] was 15.5 ± 1.8 min. For the same compound, the responders at 1 mg/kg [2] was 90%, the “survival rate of the animals increased to” value [2] was 90–100% and the “activity against tremorogenic and convulsive actions of nicotine versus reference drugs (in words)” value [2] was “comparable activity to the reference drugs”. The “Duration of Seizures” value [2] was 10.2 ± 0.7 min, the “Latency to Seizure Onset” value [2] was 2.2 ± 0.04 min and the LD50 [3] was 1043.2 (993.3 ± 1082.6) mg/kg.

With COc1ccc(C2NCCc3cc(OC)c(OC)cc32)cc1Br (stereo not shown) [Compound 19, 1-(3′-Bromo-4′-methoxyphenyl)-6,7-dimethoxy-1,2,3,4-tetrahydroisoquinoline] the responders at 1 mg/kg [1] was 40%, the “Duration of Tremor and Seizures” value [1] was 0.59 ± 0.9 min and the “Latency to Tremor and Seizure Onset” value [1] was 16.0 ± 1.4 min. For the same compound, the responders at 1 mg/kg [2] was 80%, the “Duration of Seizures” value [2] was 19.0 ± 0.8 min and the “Latency to Seizure Onset” value [2] was 1.8 ± 0.07 min. The LD50 [3] was 327.9 (287.1 ± 363.8) mg/kg.

In the case of COc1cc2c(cc1OC)C(c1ccccc1OC)NCC2 (stereo not shown) [Compound 6, 1-(2′-Methoxyphenyl)-6,7-dimethoxy-1,2,3,4-tetrahydroisoquinoline], the responders at 1 mg/kg [1] is reported as 30%, the “survival rate of strychnine-poisoned animals” value [1] is reported as “no more than 40%” and the “Duration of Tremor and Seizures” value [1] is reported as 0.50 ± 0.4 min. The “Latency to Tremor and Seizure Onset” value [1] was 15.7 ± 1.7 min, the responders at 1 mg/kg [2] was 100% and the “survival rate of the animals increased to” value [2] was 90–100%. The “activity against tremorogenic and convulsive actions of nicotine versus reference drugs (in words)” value [2] was “comparable activity to the reference drugs”, the “survival rate in nicotine-poisoned animals” value ([2]; from a dose of 0.1 mg/kg) was 90% and the “Duration of Seizures” value [2] was 10.5 ± 0.5 min. For the same compound, the “Latency to Seizure Onset” value [2] was 2.4 ± 0.03 min and the LD50 [3] was 286.7 (256.9 ± 318.7) mg/kg.

With COc1cc2c(cc1OC)C(c1cccc([N+](=O)[O-])c1)NCC2 (stereo not shown) [Compound 8, 1-(3′-Nitrophenyl)-6,7-dimethoxy-1,2,3,4-tetrahydroisoquinoline] the responders at 1 mg/kg [1] was 40%, the “Duration of Tremor and Seizures” value [1] was 0.56 ± 0.4 min and the “Latency to Tremor and Seizure Onset” value [1] was 15.9 ± 1.7 min. For the same compound, the responders at 1 mg/kg [2] was 90%, the “survival rate of the animals increased to” value [2] was 90–100% and the “activity against tremorogenic and convulsive actions of nicotine versus reference drugs (in words)” value [2] was “comparable activity to the reference drugs”. The “Duration of Seizures” value [2] was 15.5 ± 0.3 min, the “Latency to Seizure Onset” value [2] was 2.3 ± 0.08 min and the LD50 [3] was 531.4 (501.3 ± 554.1) mg/kg.

In the case of COc1cc2c(cc1OC)C(c1ccc(N(C)C)cc1)NCC2 (stereo not shown) [Compound 16, 1-(4′-Dimethylaminophenyl)-6,7-dimethoxy-1,2,3,4-tetrahydroisoquinoline], the responders at 1 mg/kg [1] is reported as 50%, the “Duration of Tremor and Seizures” value [1] is reported as 0.31 ± 0.6 min and the “Latency to Tremor and Seizure Onset” value [1] is reported as 13.1 ± 1.5 min. For the same compound, the responders at 1 mg/kg [2] was 90%, the “survival rate of the animals increased to” value [2] was 90–100% and the “activity against tremorogenic and convulsive actions of nicotine versus reference drugs (in words)” value [2] was “comparable activity to the reference drugs”. For the same compound, the “Duration of Seizures” value [2] was 8.5 ± 0.7 min, the “Latency to Seizure Onset” value [2] was 2.7 ± 0.08 min and the LD50 [3] was 498.3 (471.6 ± 524.6) mg/kg.

In the case of COc1cc2c(cc1OC)C(c1cccc(OC)c1[N+](=O)[O-])NCC2 (stereo not shown) [Compound 23, 1-(3′-Methoxy-2′-nitrophenyl)-6,7-dimethoxy-1,2,3,4-tetrahydroisoquinoline], the responders at 1 mg/kg [1] is reported as 30%, the “Duration of Tremor and Seizures” value [1] is reported as 0.60 ± 0.4 min and the “Latency to Tremor and Seizure Onset” value [1] is reported as 14.6 ± 1.4 min. The responders at 1 mg/kg [2] was 20%, the “Duration of Seizures” value [2] was 5.4 ± 0.9 min and the “Latency to Seizure Onset” value [2] was 1.5 ± 0.08 min. For the same compound, the LD50 [3] was 315.4 (281.0 ± 344.2) mg/kg.

With COc1cc2c(cc1OC)C(c1ccccc1N)NCC2 (stereo not shown) [Compound 32, 1-(2′-Aminophenyl)-6,7-dimethoxy-1,2,3,4-tetrahydroisoquinoline] the responders at 1 mg/kg [1] was 50%, the “Duration of Tremor and Seizures” value [1] was 0.34 ± 0.4 min and the “Latency to Tremor and Seizure Onset” value [1] was 18.2 ± 1.7 min. The responders at 1 mg/kg [2] was 60%, the “Duration of Seizures” value [2] was 12.2 ± 0.8 min and the “Latency to Seizure Onset” value [2] was 1.8 ± 0.06 min. For the same compound, the LD50 [3] was 366.3 (326.3 ± 395.6) mg/kg.

With COc1cc(Br)c(C2NCCc3cc(OC)c(OC)cc32)cc1O (stereo not shown) [Compound 24, 1-(2′-Bromo-4′-methoxy-5′-hydroxyphenyl)-6,7-dimethoxy-1,2,3,4-tetrahydroisoquinoline] the responders at 1 mg/kg [1] was 30%, the “Duration of Tremor and Seizures” value [1] was 0.32 ± 0.4 min and the “Latency to Tremor and Seizure Onset” value [1] was 10.2 ± 1.2 min. For the same compound, the responders at 1 mg/kg [2] was 70%, the “survival of poisoned animals compared to carbamazepine and valproate (in words)” value [2] was “did not improve the survival” and the “Duration of Seizures” value [2] was 7.3 ± 0.3 min. For the same compound, the “Latency to Seizure Onset” value [2] was 2.1 ± 0.09 min and the LD50 [3] was 546.9 (516.3 ± 571.6) mg/kg.

For COc1cc2c(cc1OC)C(c1ccccc1[N+](=O)[O-])NCC2 (stereo not shown) [Compound 7, 1-(2′-Nitrophenyl)-6,7-dimethoxy-1,2,3,4-tetrahydroisoquinoline], the responders at 1 mg/kg [1] was 40%, the “Duration of Tremor and Seizures” value [1] was 0.32 ± 0.7 min and the “Latency to Tremor and Seizure Onset” value [1] was 14.2 ± 1.7 min. For the same compound, the responders at 1 mg/kg [2] was 70%, the “Duration of Seizures” value [2] was 7.6 ± 0.8 min and the “Latency to Seizure Onset” value [2] was 2.3 ± 0.07 min. The LD50 [3] was 948.9 (916.8 ± 975.8) mg/kg.

With COc1cc2c(cc1OC)C(c1cc(OC)c(OC)cc1[N+](=O)[O-])NCC2 (stereo not shown) [Compound 26, 1-(4′,5′-Dimethoxy-2′-nitrophenyl)-6,7-dimethoxy-1,2,3,4-tetrahydroisoquinoline] the responders at 1 mg/kg [1] was 40%, the “Duration of Tremor and Seizures” value [1] was 0.51 ± 0.8 min and the “Latency to Tremor and Seizure Onset” value [1] was 16.7 ± 1.2 min. For the same compound, the responders at 1 mg/kg [2] was 80%, the “Duration of Seizures” value [2] was 10.8 ± 0.4 min and the “Latency to Seizure Onset” value [2] was 2.6 ± 0.03 min. The LD50 [3] was 524.5 (501.3 ± 547.7) mg/kg.

With COc1cc2c(cc1OC)C(c1cc(Br)c(O)c(OC)c1)NCC2 (stereo not shown) [Compound 28, 1-(5′-Bromo-4′-hydroxy-3′-methoxyphenyl)-6,7-dimethoxy-1,2,3,4-tetrahydroisoquinoline] the responders at 1 mg/kg [1] was 20%, the “Duration of Tremor and Seizures” value [1] was 0.34 ± 0.8 min and the “Latency to Tremor and Seizure Onset” value [1] was 15.5 ± 1.5 min. The responders at 1 mg/kg [2] was 70%, the “survival of poisoned animals compared to carbamazepine and valproate (in words)” value [2] was “did not improve the survival” and the “Duration of Seizures” value [2] was 9.2 ± 0.4 min. For the same compound, the “Latency to Seizure Onset” value [2] was 2.7 ± 0.04 min and the LD50 [3] was 1532.7 (1471.5 ± 1579.5) mg/kg.

With COc1cc2c(cc1OC)C(c1ccc3c(c1)OCO3)NCC2 (stereo not shown) [Compound 29, 1-(3′,4′-Methylenedioxyphenyl)-6,7-dimethoxy-1,2,3,4-tetrahydroisoquinoline] the responders at 1 mg/kg [1] was 50%, the “Duration of Tremor and Seizures” value [1] was 0.32 ± 0.9 min and the “Latency to Tremor and Seizure Onset” value [1] was 12.5 ± 1.8 min. For the same compound, the responders at 1 mg/kg [2] was 90%, the “survival rate of the animals increased to” value [2] was 90–100% and the “activity against tremorogenic and convulsive actions of nicotine versus reference drugs (in words)” value [2] was “comparable activity to the reference drugs”. The “Duration of Seizures” value [2] was 3.7 ± 0.9 min, the “Latency to Seizure Onset” value [2] was 2.5 ± 0.07 min and the LD50 [3] was 267.2 (226.3 ± 301.1) mg/kg.

In the case of COc1cc2c(cc1OC)C(c1ccc(Br)cc1)NCC2 (stereo not shown) [Compound 15, 1-(4′-Bromophenyl)-6,7-dimethoxy-1,2,3,4-tetrahydroisoquinoline], the responders at 1 mg/kg [1] is reported as 40%, the “survival rate of strychnine-poisoned animals” value [1] is reported as “no more than 40%” and the “Duration of Tremor and Seizures” value [1] is reported as 0.50 ± 0.5 min. For the same compound, the “Latency to Tremor and Seizure Onset” value [1] was 12.5 ± 1.2 min, the responders at 1 mg/kg [2] was 70% and the “Duration of Seizures” value [2] was 8.3 ± 0.3 min. The “Latency to Seizure Onset” value [2] was 2.2 ± 0.07 min and the LD50 [3] was 422.0 (399.4 ± 445.3) mg/kg.
